Test results as given in US7842488B2, “Polynucleotides encoding a human 3-phosphoinositide- dependent protein kinase” (Medical Research Council, priority 1997, dated 2010).
“Also recorded” adds a separate entry of the source.

Assays:
[1] = tested on: PDK1; assay: PDK1 assay: activation of GST-PKBα by purified PDK1 with phospholipid vesicles; format: biochemical, rabbit; conditions: lipid 10 μM in vesicles of 100 μM PtdCho, 100 μM PtdSer; 30 min at 30° C.
Summary of the method: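 Two-stage assay: GST-PKBα incubated with PDK1, MgATP and phospholipid vesicles to allow activation. Reactions run 10 min at 30 °C, stopped on p81 phosphocellulose paper and washed in phosphoric acid. Basal GST-PKBα activity measured without PDK1.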

[2] = target: T1, GST-PDK1 (Homo sapiens, UniProt O15530); assay: GST-PDK1 assay: activation and phosphorylation of GST-PKBα; format: biochemical; conditions: lipid 10 μM in PtdCho/PtdSer vesicles
T1 construct: Residues 52-556 of PDK1 were expressed in human embryonic kidney 293 cells; made in house; host or cells: human embryonic kidney 293 cells (pEBG2T)
T1 sequence (O15530 52-556): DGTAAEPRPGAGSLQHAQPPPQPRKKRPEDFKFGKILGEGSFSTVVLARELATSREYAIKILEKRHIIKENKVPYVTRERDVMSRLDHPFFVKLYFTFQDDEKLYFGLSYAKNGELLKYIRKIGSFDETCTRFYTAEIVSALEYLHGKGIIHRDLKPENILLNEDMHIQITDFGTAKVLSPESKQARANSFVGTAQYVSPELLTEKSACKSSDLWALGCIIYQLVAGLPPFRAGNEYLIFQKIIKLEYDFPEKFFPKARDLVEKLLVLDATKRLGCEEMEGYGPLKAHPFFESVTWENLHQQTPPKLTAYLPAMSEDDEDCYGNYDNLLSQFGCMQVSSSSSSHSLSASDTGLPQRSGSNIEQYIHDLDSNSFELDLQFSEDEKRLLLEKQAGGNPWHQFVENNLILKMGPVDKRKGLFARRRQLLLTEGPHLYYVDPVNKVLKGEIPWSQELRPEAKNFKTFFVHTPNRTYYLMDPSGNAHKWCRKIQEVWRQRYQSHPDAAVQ
Procedure: (§1) FIG. 12. […] In panels A and C, the assays were terminated by making the incubations 1% (by vol) in TRITON X-100™ (see Ref 21), and the increase in specific activity of GST-PKBα was determined. In panels B and D, the reactions were terminated by making the solutions 1% in SDS, the samples were subjected to SDS/polyacrylamide gel electrophoresis, and the phosphorylation was assessed by autoradiography of the Coomassie blue-stained band corresponding to GST-PKBα.
(§2) One unit of PDK1 activity was defined as that amount required to increase the basal activity of GST-PKBα by 1 unit of activity in one min.

[3] = target: T2, GST-DSTPK61 (Drosophila melanogaster, UniProt Q9W0V1); assay: GST-DSTPK61 assay: activation and phosphorylation of GST-PKBα; format: biochemical; conditions: lipid 10 μM in PtdCho/PtdSer vesicles
T2 construct: residues 1-752 of DSTPK61 in E. coli as fusion proteins; made in house; host or cells: E. coli (pGEX-3X)
Procedure: as §1, §2

[4] = target: T3, PDK1 (Homo sapiens, UniProt O15530); assay: Direct binding of PtdIns(3,4,5)P3 to PDK1
T3 sequence (O15530 1-556): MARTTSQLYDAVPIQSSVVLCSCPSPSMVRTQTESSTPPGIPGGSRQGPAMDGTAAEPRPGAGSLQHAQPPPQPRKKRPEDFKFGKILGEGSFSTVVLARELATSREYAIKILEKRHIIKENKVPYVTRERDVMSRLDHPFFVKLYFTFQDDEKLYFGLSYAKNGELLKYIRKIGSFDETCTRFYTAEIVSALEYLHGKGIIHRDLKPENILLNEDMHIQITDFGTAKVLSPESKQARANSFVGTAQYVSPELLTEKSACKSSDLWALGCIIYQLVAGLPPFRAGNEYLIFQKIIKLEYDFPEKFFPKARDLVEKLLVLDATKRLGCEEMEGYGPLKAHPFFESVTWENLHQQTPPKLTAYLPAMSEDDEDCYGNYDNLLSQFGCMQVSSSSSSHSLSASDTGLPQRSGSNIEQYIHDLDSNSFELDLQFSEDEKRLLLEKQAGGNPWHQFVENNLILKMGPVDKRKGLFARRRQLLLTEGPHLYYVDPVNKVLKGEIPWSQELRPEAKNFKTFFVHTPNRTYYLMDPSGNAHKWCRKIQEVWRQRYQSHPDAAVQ

[5] = tested on: GST-PKBα; assay: Activation of GST-PKBα after stimulation of transfected 293 cells; format: cell-based, human; conditions: versus unstimulated 293 cells
From the text: Expression of GST-PKBα in 293 cells. The DNA sequence encoding PKBα was subcloned into the eukaryotic expression vector PEBG2T that has been used to overexpress GST-fusion proteins in eukaryotic cells under an EF1α promoter. A PCR reaction was set up to generate a full length cDNA encoding the PKBα gene with a BamH1site at the 5′ end of the cDNA that is in frame with the GST sequence of the PEBG2T vector and the ATG initiation codon of PKBα, and a KpnI site at the 3′ end, using the human PCMV5-HA-PKBα plasmid. The DNA sequence of the BamH1/KpnI cDNA fragment was checked and then subcloned into the unique BamH1/KpnI restriction sites on the pEBG 2T expression vector. In order to prepare GST-PKBα, 40, 10 cm diameter dishes of human embryonic kidney 293 cells were cultured and each dish transfected with 20 μg of GST PKBα expression construct using the modified calcium phosphate method described previously for overexpression of haemaglutinin tagged PKBα in 293 cells. […]

[6] = tested on: HA-PKBα; assay: HA-PKBα activity in transfected 293 cells; format: cell-based, human
Procedure: FIG. 14. PKBα is activated by cotransfection with PDK1 in 293 cells. (A) 293 cells were transiently transfected with DNA constructs expressing either HA-PKBα or both HA-PKBα and Myc-PDK1. The cells were then stimulated for 10 min with or without 50 ng/ml IGF1, the HA-PKBα immunoprecipitated from the lysates and assayed. The results are expressed relative to the specific activity of wild type HA-PKBα in unstimulated 293 cells ([…]). No PKBα activity was detected in mock transfections in which the cells were transfected with PCMV5 vector alone (data not shown). (B) 6 μg of protein from each lysate was electrophoresed on a 10% SDS/polyacrylamide gel and immunoblotted using either a monoclonal HA-antibody to detect HA-PKBα or a monoclonal Myc-antibody to detect Myc-PDK1. The molecular mass markers are glycogen phosphorylase (97 kDa), bovine serum albumin (67 kDa) and ovalbumin (43 kDa).
Transfection of 293 cells with HA-tagged PBKα and Myc-PDK1. Human embryonic kidney 293 cells were cultured on 10 cm diameter dishes and transfected with 2 μg/ml pCMV5 DNA constructs encoding for HA-PKBα or HA-PKBα plus Myc-PDK1 [20]. After 24 h the cells were deprived of serum for a further 16 h and then stimulated for 10 min with either […] IGF1 or Buffer. The cells were lysed in 1.0 ml of ice-cold Buffer A, the lysate centrifuged at 4° C. for 10 min at 13,000×g and HA-PKBα immunoprecipitated from aliquots of the supernatant (10 μg protein) and assayed for PKBα with the peptide RPRAATF (SEQ ID NO: 9) as described previously.

[7] = tested on: HA-PKBα; assay: 32P-labelling of transfected 293 cells: phosphorylation sites of HA-PKBα; format: cell-based, human; conditions: 293 cells cotransfected with PDK1
Procedure: FIG. 15. Overexpression of PDK1 in cells induces phosphorylation of PKBα at Thr308. 293 cells transiently transfected with either wild type HA-PKBα (panels A and C) or HA-PKBα and Myc-PDK1 (panels B and D) were incubated with ^32P-orthophosphate, then treated for 10 min without (panels A and B) or with (panels C and D) 50 ng/ml IGF1. The ^32P-labelled HA-PKBα was immunoprecipitated from the lysates, treated with 4-vinylpyridine, and electrophoresed on 1 10% polyacrylamide gel. The HA-PKBα was excised from the gel, digested with trypsin and chromatographed on a C18 column (see legend to FIG. 13) to resolve the four major phosphopeptides which are phosphorylated at Ser-124, Ser473, Thr308 and Thr450 respectively. The identity of each phosphopeptide was established by phospho-amino acid analysis and solid phase sequencing. Similar results were obtained in two separate experiments for (panels A and C), and in three separate experiments (panels B and D).
(§3) ^32P-labelling of 293 cells transfected with HA-PKBα or Myc-PDK1. This was carried out essentially as described previously. Briefly, 293 cells were transfected with HA-PKBα, or with HA-PKBα plus Myc-PDK1, washed with phosphate free DMEM, incubated for 4 h with [^32P]-orthophosphate (1 mCi/ml), then stimulated with IGF1 (50 ng/ml) for 5 min. The cells were lysed, and the HA-PKBα immunoprecipitated (using 10 μg of 12CAS antibody per 10 cm dish of cells) or the Myc-PDK1 immunoprecipitated (using 10 μg of 9E10 antibody per 10 cm dish of cells). The immunoprecipitated protein was alkylated with 4-vinylpyridine, subjected to SDS/polyacrylamide gel electrophoresis, digested with trypsin and analysed by chromatography on a C18 column (Alessi et al (1996) EMBO J. 15, 6541-6551).

[8] = tested on: PDK1; assay: Endogenous PDK1 activity in lysates of IGF1-stimulated 293 cells; format: cell-based, human; conditions: up to 10 min
Procedure: PDK1 is not activated or phosphorylated by IGF1. 293 cells were serum starved for 16 h, stimulated with IGF1 lysed and the endogenous PDK1 activity present in the cell lysates was determined after chromatography on heparin-Sepharose (see Methods).

[9] = tested on: Myc-PDK1; assay: 32P-labelling of 293 cells: phosphorylation of Myc-PDK1; format: cell-based, human; conditions: 5 min
Procedure: as §3
In order to see if IGF1 stimulation was inducing the phosphorylation of PDK1, 293 cells were transfected with Myc-PDK1 (encoding residues 52 to 556), incubated with ^32P-phosphate, stimulated with buffer or IGF1 for 5 min and ^32P-labelled Myc-PDK1 was immunoprecipitated from the lysates. After digestion with trypsin, the resulting peptides were analysed by C18 chromatography. […] One of the in vivo phosphorylation sites on PDK1 was identified as Ser-241 which lies in the equivalent position to Thr308 of PKB in the kinase domain.

T2 sequence (Q9W0V1 85-836 Q200H/Q201E/Q317A/G443R): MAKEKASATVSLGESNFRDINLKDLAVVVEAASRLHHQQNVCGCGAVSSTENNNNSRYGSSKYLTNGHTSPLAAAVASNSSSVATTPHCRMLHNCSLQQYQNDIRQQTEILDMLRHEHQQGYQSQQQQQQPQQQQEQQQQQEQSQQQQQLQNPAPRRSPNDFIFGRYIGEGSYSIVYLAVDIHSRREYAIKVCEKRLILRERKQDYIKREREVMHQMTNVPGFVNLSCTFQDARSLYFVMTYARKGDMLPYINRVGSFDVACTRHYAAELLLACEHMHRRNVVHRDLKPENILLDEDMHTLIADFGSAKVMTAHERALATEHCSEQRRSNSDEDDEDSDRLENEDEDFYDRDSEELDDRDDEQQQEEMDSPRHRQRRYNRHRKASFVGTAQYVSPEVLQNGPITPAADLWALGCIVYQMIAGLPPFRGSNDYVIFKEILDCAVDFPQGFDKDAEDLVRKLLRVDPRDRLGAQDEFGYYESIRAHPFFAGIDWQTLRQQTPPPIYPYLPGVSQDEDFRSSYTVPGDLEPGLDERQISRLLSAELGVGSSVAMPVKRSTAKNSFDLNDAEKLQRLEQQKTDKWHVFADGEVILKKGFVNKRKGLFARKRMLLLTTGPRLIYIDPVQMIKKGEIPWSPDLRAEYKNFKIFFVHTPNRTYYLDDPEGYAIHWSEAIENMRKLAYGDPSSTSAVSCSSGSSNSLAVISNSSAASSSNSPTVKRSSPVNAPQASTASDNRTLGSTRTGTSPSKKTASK

Row | Substance | activation of PDK1 (in words) [1] | activation and phosphorylation of GST-PKBα by GST-PDK1 (in words) [2] | activation and phosphorylation of GST-PKBα by GST-DSTPK61 (in words) [3] | binding to PDK1 (in words) [4] | fold activation of GST-PKBα after stimulation of 293 cells [5] [fold] | fold increase of HA-PKBα activity after stimulation ([6]; 293 cells transfected with HA-PKBα alone, 10 min) [fold] | fold increase of HA-PKBα activity after stimulation ([6]; 293 cells transfected with both HA-PKBα and Myc-PDK1) [fold] | further fold increase of Thr308 phosphorylation of HA-PKBα [7] [fold] | endogenous PDK1 activity after stimulation of 293 cells [8] | phosphorylation of Myc-PDK1 tryptic peptides after stimulation of 293 cells [9]
1 | Phosphatidylinositol 3,4,5-tris phosphate [PtdIns(3,4,5)P3] | only active in the presence of low micromolar concentrations | activated and phosphorylated GST-PKBα | activated and phosphorylated GST-PKBα | bind PtdIns(3,4,5)P3 directly | – | – | – | – | – | –
2 | IGF1: growth factor IGF1 used to stimulate 293 cells | – | – | – | – | 45 | 40 | 70 | 4 | did not result in any activation or inhibition; also recorded: did not affect | does not alter the phosphorylation; also recorded: did not affect
